# Laboratory results from PubChem BioAssay (NCI).
#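 A five-concentration, 48-hour dose response in 96-well plates underlies each endpoint, interpolated linearly between surrounding concentrations. TGI denotes the concentration required for complete inhibition of growth.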
# Experiments:
# Assay in all cases: NCI-60 cell line screen, 48 h
# 786-0 renal = test system: 786-0 renal
# A498 renal = test system: A498 renal
# A549 NSCLC = test system: A549 NSCLC
# ACHN renal = test system: ACHN renal
# BT-549 breast = test system: BT-549 breast
# CAKI-1 renal = test system: CAKI-1 renal
# CCRF-CEM leukemia = test system: CCRF-CEM leukemia
# COLO 205 colon = test system: COLO 205 colon
# DU-145 prostate = test system: DU-145 prostate
# EKVX NSCLC = test system: EKVX NSCLC
# HCC-2998 colon = test system: HCC-2998 colon
# HCT-116 colon = test system: HCT-116 colon
# HCT-15 colon = test system: HCT-15 colon
# HL-60(TB) leukemia = test system: HL-60(TB) leukemia
# HOP-62 NSCLC = test system: HOP-62 NSCLC
# HOP-92 NSCLC = test system: HOP-92 NSCLC
# HS 578T breast = test system: HS 578T breast
# HT29 colon = test system: HT29 colon
# IGROV1 ovarian = test system: IGROV1 ovarian
# K-562 leukemia = test system: K-562 leukemia
# KM12 colon = test system: KM12 colon
# LOX IMVI melanoma = test system: LOX IMVI melanoma
# M14 melanoma = test system: M14 melanoma
# MALME-3M melanoma = test system: MALME-3M melanoma
# MCF7 breast = test system: MCF7 breast
# MDA-MB-231 breast = test system: MDA-MB-231 breast
# MDA-MB-435 = test system: MDA-MB-435
# MDA-N = test system: MDA-N
# MOLT-4 leukemia = test system: MOLT-4 leukemia
# NCI-H226 lung = test system: NCI-H226 lung
# NCI-H23 lung = test system: NCI-H23 lung
# NCI-H460 lung = test system: NCI-H460 lung
# NCI-H522 lung = test system: NCI-H522 lung
# NCI/ADR-RES ovarian = test system: NCI/ADR-RES ovarian
# OVCAR-3 ovarian = test system: OVCAR-3 ovarian
# OVCAR-4 ovarian = test system: OVCAR-4 ovarian
# OVCAR-5 ovarian = test system: OVCAR-5 ovarian
# OVCAR-8 ovarian = test system: OVCAR-8 ovarian
# PC-3 prostate = test system: PC-3 prostate
# RPMI-8226 leukemia = test system: RPMI-8226 leukemia
# SF-268 CNS = test system: SF-268 CNS
# SF-295 CNS = test system: SF-295 CNS
# SF-539 CNS = test system: SF-539 CNS
# SK-MEL-2 melanoma = test system: SK-MEL-2 melanoma
# SK-MEL-28 melanoma = test system: SK-MEL-28 melanoma
# SK-MEL-5 melanoma = test system: SK-MEL-5 melanoma
# SK-OV-3 ovarian = test system: SK-OV-3 ovarian
# SN12C renal = test system: SN12C renal
# SNB-19 CNS = test system: SNB-19 CNS
# SNB-75 CNS = test system: SNB-75 CNS
# SR leukemia = test system: SR leukemia
# SW-620 colon = test system: SW-620 colon
# T-47D breast = test system: T-47D breast
# TK-10 renal = test system: TK-10 renal
# U251 CNS = test system: U251 CNS
# UACC-257 melanoma = test system: UACC-257 melanoma
# UACC-62 melanoma = test system: UACC-62 melanoma
# UO-31 renal = test system: UO-31 renal
smiles,measurement,setting,value
CN(C)CCCN1c2ccccc2CCc2cccc([N+](=O)[O-])c21,TGI,786-0 renal,28.6 µM
same,TGI,A498 renal,37.2 µM
same,TGI,A549 NSCLC,> 100 µM
same,TGI,ACHN renal,53.6 µM
same,TGI,BT-549 breast,61 µM
same,TGI,CAKI-1 renal,48.4 µM
same,TGI,CCRF-CEM leukemia,14.7 µM
same,TGI,COLO 205 colon,33.9 µM
same,TGI,DU-145 prostate,32.3 µM
same,TGI,EKVX NSCLC,> 100 µM
same,TGI,HCC-2998 colon,31.5 µM
same,TGI,HCT-116 colon,28.9 µM
same,TGI,HCT-15 colon,29.6 µM
same,TGI,HL-60(TB) leukemia,30.1 µM
same,TGI,HOP-62 NSCLC,30 µM
same,TGI,HOP-92 NSCLC,45.5 µM
same,TGI,HS 578T breast,70.5 µM
same,TGI,HT29 colon,29.7 µM
same,TGI,IGROV1 ovarian,32.3 µM
same,TGI,K-562 leukemia,29.1 µM
same,TGI,KM12 colon,30.9 µM
same,TGI,LOX IMVI melanoma,30.2 µM
same,TGI,M14 melanoma,29.2 µM
same,TGI,MALME-3M melanoma,32.5 µM
same,TGI,MCF7 breast,30.7 µM
same,TGI,MDA-MB-231 breast,47.6 µM
same,TGI,MDA-MB-435,30.3 µM
same,TGI,MDA-N,29.7 µM
same,TGI,MOLT-4 leukemia,29.8 µM
same,TGI,NCI-H226 lung,69.5 µM
same,TGI,NCI-H23 lung,> 100 µM
same,TGI,NCI-H460 lung,32.1 µM
same,TGI,NCI-H522 lung,30.6 µM
same,TGI,NCI/ADR-RES ovarian,32.9 µM
same,TGI,OVCAR-3 ovarian,29.8 µM
same,TGI,OVCAR-4 ovarian,45.2 µM
same,TGI,OVCAR-5 ovarian,> 100 µM
same,TGI,OVCAR-8 ovarian,29.3 µM
same,TGI,PC-3 prostate,34.5 µM
same,TGI,RPMI-8226 leukemia,23.8 µM
same,TGI,SF-268 CNS,64.5 µM
same,TGI,SF-295 CNS,30.1 µM
same,TGI,SF-539 CNS,31.6 µM
same,TGI,SK-MEL-2 melanoma,65.6 µM
same,TGI,SK-MEL-28 melanoma,26.1 µM
same,TGI,SK-MEL-5 melanoma,30 µM
same,TGI,SK-OV-3 ovarian,85.9 µM
same,TGI,SN12C renal,52.9 µM
same,TGI,SNB-19 CNS,> 100 µM
same,TGI,SNB-75 CNS,24.4 µM
same,TGI,SR leukemia,28.5 µM
same,TGI,SW-620 colon,36 µM
same,TGI,T-47D breast,27.8 µM
same,TGI,TK-10 renal,37.2 µM
same,TGI,U251 CNS,32.9 µM
same,TGI,UACC-257 melanoma,34.7 µM
same,TGI,UACC-62 melanoma,36.2 µM
same,TGI,UO-31 renal,41.7 µM
